Experimental findings from PubChem BioAssay (NCI) are described below.

What all share (experiment): NCI-60 cell line screen, 48 h
The test system of test [1] is 786-0 renal.
Test [2] relates to BT-549 breast.
Test [3] concerns EKVX NSCLC.
Test [4] deals with KM12 colon.
The test system of test [5] is MOLT-4 leukemia.
Test [6] concerns NCI-H460 lung.
In test [7] the test system is PC-3 prostate.
Test [8] deals with SNB-19 CNS.
Test [9] relates to T-47D breast.
Test [10] has as its system UACC-62 melanoma.

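Exposure lasted 48 hours, with cells grown in 96-well plates and compounds tested at five concentrations. At the GI50, growth is halved. The concentration for full growth arrest is given as TGI.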

On to `O=C(O)c1cscc1Cc1cccs1`, for which the TGI in test [1], in test [2], in test [3], in test [4], in [5] and in test [6] was over 100 µM each time. The TGI in [7], in test [8], in [9] and in test [10] was over 100 µM in each case.
Regarding `CN1CCN(CCNc2ccc(CO)c3sc4ccccc4c(=O)c23)CC1`, the TGI in test [1] amounted to 17.5 µM; in [2], 16.1 µM; in [3], 20.7 µM; in test [4] it was 16.7 µM; in test [5] it was 12.3 µM; in test [6] it was 13.1 µM. For the same compound, the TGI amounted to 14.5 µM in [7], 36.1 µM in test [8], 19.4 µM in test [9] and 9.93 µM in test [10]. In addition, the GI50 in test [2] was 4.83 µM; in test [3] it was 7.48 µM; in [7] it was 3.5 µM; in [9] it was 3.37 µM.
`COc1ccc2c(c1)cn1c3ccc(O)cc3[nH]c(=O)c21`: the GI50 is 0.334 µM in [1]; 2.73 µM in test [2]; 0.797 µM in [3]; 0.329 µM in test [4]; 0.316 µM in test [5]; 0.138 µM in test [6]. The GI50 was 0.244 µM in test [7], 0.203 µM in test [8], 0.487 µM in test [9] and 0.151 µM in test [10]. For the same compound, the TGI in [1] came to 5.49 µM; in test [2], 19.2 µM; in [3], 19.2 µM; in test [4], 5.39 µM; in test [5], 6.95 µM; in test [6], 1.62 µM. Further, the TGI in [7] was 16.4 µM; in [8], 19.5 µM; in [9], 2.37 µM; in test [10] it was 6.02 µM.
Turning to `O=C(CNc1ncco1)Nc1ccc(S(=O)(=O)c2ccc(NC(=O)CNc3ncco3)cc2)cc1`, the GI50 was 3.95 µM in test [1]; 2.09 µM in test [2]; 2.23 µM in test [3]; 1.74 µM in test [4]; 3.13 µM in test [5]; 2.02 µM in test [6]. Moreover, the GI50 was 2.49 µM in [7], 2.88 µM in test [8], 1.87 µM in test [9] and 1.75 µM in [10]. The TGI was determined as 18.3 µM in test [1]; 6.26 µM in [2]; 9 µM in test [3]; 3.43 µM in test [4]; 8.45 µM in test [5]; 4.29 µM in [6]. Besides, the TGI in [7] stood at 8.32 µM; in [8], 12.8 µM; in test [9], 4.38 µM; in test [10], 3.65 µM.
As to `COc1ccc(-c2nnc(N3CCN(C(=O)CN4CCN(c5ccc(Cl)cc5)CC4)CC3)nc2-c2ccc(OC)cc2)cc1`, the GI50 in [1] was 17.5 µM; in test [2] it was 8.88 µM; in test [3], over 100 µM; in test [4], 8.5 µM; in [5], 6.53 µM; in [6], 14.4 µM. Also, the GI50 in test [7] was 9.58 µM; in [8], 40.1 µM; in test [9] it was 4.51 µM; in [10], 31.5 µM. Moreover, the TGI in [1] was 69.8 µM; in test [2], 82.8 µM; in test [3], over 100 µM; in test [4] it was over 100 µM; in test [5], over 100 µM; in test [6], over 100 µM. Also, the TGI is over 100 µM in test [7], over 100 µM in [8], 74.8 µM in test [9] and over 100 µM in test [10].
As to `Oc1c(I)cc(-c2nc3ccccc3s2)cc1CN(Cc1ccccn1)Cc1ccccn1`, the GI50 in test [1] is 0.347 µM; in test [2], 0.394 µM; in test [3], 0.321 µM; in test [4], 0.4 µM; in test [5], 0.327 µM; in test [6], 0.327 µM. In addition, the GI50 in [7] is 0.308 µM; in [8], 0.387 µM; in test [9], 0.666 µM; in [10], 0.207 µM. Also, the TGI in test [1] is 2.62 µM; in test [2] it was 29.8 µM; in test [3], over 100 µM; in test [4] it was 17.4 µM; in test [5], over 100 µM; in test [6], 5.94 µM. The TGI in test [7] was over 100 µM; in [8] it was over 100 µM; in test [9], 83.3 µM; in [10], 0.563 µM.
In the case of `CCCCCCC#CC#Cc1cccc(=O)o1`, the GI50 was 0.991 µM in test [1]; 0.556 µM in test [2]; 13.8 µM in test [3]; 3.83 µM in [4]; 2.31 µM in test [5]; 8.14 µM in [6]. The GI50 in test [7] was 2.67 µM; in [8], 25.6 µM; in test [9] it was 16.6 µM; in test [10] it was 1.45 µM. The TGI is 2.72 µM in test [1]; 2.7 µM in [2]; 31.7 µM in test [3]; 14.3 µM in [4]; over 21 µM in test [5]; 47.9 µM in [6]. Further, the TGI in [7] was 8.36 µM; in test [8], 45.9 µM; in [9], 57.2 µM; in test [10], 2.86 µM.
With `O=S(=O)(NCCNc1cc(-c2cn(-c3ccccc3)nc2-c2cccc(O)c2)ccn1)c1ccc(Cl)cc1`, the GI50 in [1] was 2.54 µM; in test [2] it was 2.06 µM; in test [3], 2.87 µM; in [4] it was 2.63 µM; in test [5], 2.51 µM; in test [6], 3.34 µM. The GI50 is 2.45 µM in test [7], 4.26 µM in [8], 2.16 µM in test [9] and 2.08 µM in [10]. For the same compound, the TGI in test [1] is 9.78 µM; in test [2] it was 7.65 µM; in test [3], 31.2 µM; in test [4], 9.62 µM; in [5] it was 7.37 µM; in [6] it was 11.9 µM. For the same compound, the TGI came to 12 µM in test [7], 63.7 µM in test [8], 7.74 µM in [9] and 5.08 µM in test [10].
